What was measured:
[1] = tested on: glutamate G protein coupled receptor; assay: Voltage-clamp assay of antagonist inhibition of glutamic acid-evoked current in injected oocytes; format: cell-based, rat; conditions: 1 mM DL-AP3
Experimental: Voltage clamp assays were also carried out on injected oocytes to measure the inhibition by the putative glutamate G protein coupled receptor antagonist, 2-amino-3-phosphonopropionic acid (AP3).

[2] = target: T1, GluG R encoded by clone 45-A (Rattus norvegicus, UniProt P23385); assay: Voltage-clamp assay of L-glutamic acid analogs at saturating concentrations in injected oocytes; format: cell-based; set-up: expressed in transfected cells; host or cells: Xenopus oocytes injected with in vitro transcribed (T7, pVEGT') clone 45-A RNA
GluG R = assay: Voltage-clamp assay of oocytes injected with RNA from rat cerebellum cDNA library pools; format: cell-based
Experimental: Plasmid DNA prepared from each of the 10 pools of 100,000 clones, which in total represented one sublibrary of one million clones of the cerebellum cDNA library, was purified by cesium chloride gradient ultracentrifugation. The DNA was transcribed in vitro with T7 RNA polymerase (Pharmacia) in the presence of capped nucleotide (GpppG, Pharamcia). […] The transcription reaction tubes were set up by adding 12 μl of 5× transcription buffer (Stratagene Cloning Systems, La Jolla, Calif.), 3 μl each of 10 mM ATP, CTP, GTP, and UTP, 6 μl of 10 mM GpppG (Pharmacia), 6 μl of 1 mg/ml BSA, 3 μl of 200 mM DTT, 1.5 μl of 40 U/μl RNasin (ProMega Biotech, Madison, Wis.), 8.5 μl of water, 10 μl of cDNA containing 5 to 10 μg DNA, and 1 μl of 70 U/μl T7 RNA polymerase. […] Forty microliters of water was added to the radiolabeled reactions, and 1 μl was removed from each sample and counted to determine total counts. […] The samples were centrifuged to collect the RNA and the RNA pellets were counted to determine the counts incorporated into RNA. […]
The RNA from each of the 10 sublibraries were injected into oocytes as described above and translation was allowed for four days. Expression of GluG R activity was assessed by voltage-clamp assay as described above. […]

[3] = target: T1, GluG R encoded by clone 45-A; conditions: read-out: Glutamate Analog Potencies (EC50); Xenopus oocytes injected with 45-A RNA; responses normalized to subsequent response to 100 μM L-glutamic acid

T1 sequence (P23385 19-1199): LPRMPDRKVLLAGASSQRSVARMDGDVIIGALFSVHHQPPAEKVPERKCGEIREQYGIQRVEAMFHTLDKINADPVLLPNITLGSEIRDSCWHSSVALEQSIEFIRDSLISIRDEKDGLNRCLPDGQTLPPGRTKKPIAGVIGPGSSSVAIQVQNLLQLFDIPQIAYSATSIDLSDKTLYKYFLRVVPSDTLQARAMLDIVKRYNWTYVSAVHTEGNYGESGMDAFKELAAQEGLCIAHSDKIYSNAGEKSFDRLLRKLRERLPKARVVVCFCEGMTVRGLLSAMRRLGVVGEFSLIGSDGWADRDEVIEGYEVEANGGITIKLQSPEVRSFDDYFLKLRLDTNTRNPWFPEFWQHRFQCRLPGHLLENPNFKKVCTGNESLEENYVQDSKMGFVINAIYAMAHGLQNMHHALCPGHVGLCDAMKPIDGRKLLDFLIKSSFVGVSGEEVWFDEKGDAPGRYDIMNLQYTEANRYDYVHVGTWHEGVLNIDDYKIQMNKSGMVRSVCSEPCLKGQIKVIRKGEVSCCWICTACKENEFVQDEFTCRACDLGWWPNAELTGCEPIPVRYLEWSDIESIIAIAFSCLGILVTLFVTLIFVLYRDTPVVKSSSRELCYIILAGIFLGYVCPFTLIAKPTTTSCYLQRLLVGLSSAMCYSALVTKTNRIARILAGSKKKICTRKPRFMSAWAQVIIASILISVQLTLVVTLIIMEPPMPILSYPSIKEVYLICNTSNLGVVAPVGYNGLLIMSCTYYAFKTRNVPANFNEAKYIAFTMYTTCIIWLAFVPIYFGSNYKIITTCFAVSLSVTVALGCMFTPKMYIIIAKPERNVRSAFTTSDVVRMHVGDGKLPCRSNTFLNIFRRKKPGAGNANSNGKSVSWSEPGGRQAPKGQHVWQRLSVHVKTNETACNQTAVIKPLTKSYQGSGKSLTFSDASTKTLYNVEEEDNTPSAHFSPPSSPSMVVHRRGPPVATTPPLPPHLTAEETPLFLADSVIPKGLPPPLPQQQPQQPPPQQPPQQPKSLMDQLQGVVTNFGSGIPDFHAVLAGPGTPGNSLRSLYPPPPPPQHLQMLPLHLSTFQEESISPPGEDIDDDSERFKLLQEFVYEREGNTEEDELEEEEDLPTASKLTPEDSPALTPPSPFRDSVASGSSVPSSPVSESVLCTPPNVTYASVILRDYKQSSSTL

SMILES: NC(CP(=O)(O)O)C(=O)O (racemic) [DL-AP3, 2-amino-3-phosphonopropionic acid]
- current evoked by 10 μM glutamic acid, reduced to % of the control [1]: 59.3±7.3%

SMILES: CN[C@H](CC(=O)O)C(=O)O [NMDA, N-methyl-D-aspartic acid]
- response normalized to a subsequent response to 100 μM L-glutamate (effective/ineffective) ([2]; 100 μM NMDA + 10 μM glycine): ineffective

SMILES: N[C@@H](Cn1oc(=O)[nH]c1=O)C(=O)O [Quisqualic acid, quisqualic acid]
- peak current in response to quisqualate (GluG R; oocyte injected with approximately 100 ng RNA from subfractionated pool of 14,000 colonies, estimated from a digital panel meter): approximately 1300 nA
- signal with administration of quisqualate to the oocyte (GluG R; sublibrary pool Z93-1.9 (100,000 clones)): produced a signal

SMILES: Cc1onc(O)c1CC(N)C(=O)O (stereo not drawn) [AMPA, α-amino-3-hydroxy-5-methyl-isoxazole-4-propionic acid]
- response normalized to a subsequent response to 100 μM L-glutamate (effective/ineffective) ([2]; 100 μM): ineffective

SMILES: N[C@H](C(=O)O)c1cc(=O)[nH]o1 [Ibotenic acid, ibotenic acid]
- EC50 [3]: 32.4 µM

SMILES: N[C@@H](CC(=O)O)C(=O)O [aspartic acid]
- response normalized to a subsequent response to 100 μM L-glutamate (effective/ineffective) ([2]; 1 mM): ineffective

SMILES: C=C(C)[C@H]1CN[C@H](C(=O)O)[C@H]1CC(=O)O [kainic acid]
- response normalized to a subsequent response to 100 μM L-glutamate (effective/ineffective) ([2]; 1 mM): ineffective

SMILES: NC(CCP(=O)(O)O)C(=O)O (stereo not drawn) [APB, 2-amino-4-phosphonobytyric acid]
- response normalized to a subsequent response to 100 μM L-glutamate (effective/ineffective) ([2]; 100 μM): ineffective

Source: patent US5385831A, “Method for producing a mammalian G protein coupled glutamate receptor” (priority 1993, dated 1995)
